In patent publication US20250250308A1, “METHODS AND COMPOSITIONS WITH ANTIFUNGAL ACTIVITY” (priority 2022, published 2025):
Values joined by “and” are separate entries in the source; they are usually repeats but may differ in a detail not shown here. Identical values can stand only once. “Also recorded” adds a separate entry of the source.

B1: EntV: 68 amino acid active C-terminal form of the E. faecalis bacteriocin EntV (SEQ ID NO: 14) (protein, listed as Enterococcus faecalis)
chain: LGSCVANKIKDEFFAMISISAIVKAAQKKAWKELAVTVLRFAKANGLKTNAIIVAGQLALWAVQCGLS

How the values were obtained:
C. albicans [1] = assay: Mouse OPC (oropharyngeal candidiasis) model; type: in vivo
Experimental: Mouse OPC model. The efficacy of EntV fragments were tested in the OPC model as described (Graham et al., 2017; Solis and Filler, 2012). Mice were immunosuppressed by injecting 225 mg/kg cortisone acetate subcutaneously 1 d before inoculation, and subsequently on days 1 and 3 of the infection. Group size was 6-8. To prepare the inoculum, 1 ml of C. albicans (SC5314) overnight culture grown at 30° C. in YPD broth was washed twice in PBS before resuspension in sterile Hanks' balanced salt solution (HBSS) at a concentration of 1×10^6 cells/mL. Calcium alginate swabs were soaked in this inoculum for 5 minutes prior to inoculation. Mice were anesthetized using ketamine and xylazine and placed on pre-warmed isothermal pads and the swabs were placed sublingually for 75 min. Mice were given additional doses of ketamine (50 mg/kg), as necessary. After inoculation, mice were given drinking water with EntV fragments or DMSO (0.01%) in the drinking water ad libitum. Mice were euthanized at 5 d after inoculation, unless noted. The tongues were excised and cut in half laterally for tissue histology and assessment of fungal burden.
For tissue histology the tongue sample was placed in 10% zinc-buffered formalin overnight and stored in 80% ethanol, before embedding in paraffin. For each tongue, 5 μm sections were prepared using a Leica microtome and stained using Periodic Acid-Schiff (PAS) stain. Epithelial invasion was measured from 40× images taken of the entire tissue section of each tongue half with the total area of epithelium and infected epithelium were measured using ImageJ (version 1.6). Measurements were totaled and expressed as a percentage of total infected epithelium relative to the entire epithelial area (Graham et al., 2017; Moyes et al., 2016).
For examination of fungal burden, qPCR was used by amplifying a 269-bp fragment of the internal transcribed spacer 2 (ITS2) between the 5.8S and 28S ribosomal RNA genes of C. albicans (Graham et al., 2017; Khot et al., 2009). DNA was extracted from homogenized tongue tissue using the Yeast DNA Extraction Kit (Thermo Scientific) according to the protocol with minor modifications. The ITS2 fragment was amplified by qPCR was performed with a CFX96 Real-Time System with a C1000 Touch thermal cycler (BioRad). C. albicans gDNA was quantified using FastStart Universal SYBR Green master mix with ROX (Roche). To screen for contamination and background fluorescence during the qPCR amplification, no template controls were used.

C. albicans [2] = assay: Killing of C. elegans by C. albicans (survival of infected nematodes); type: in vivo; conditions: for Median survival: C. albicans infected C. elegans exposed to 1 nM peptide, one value per trial
Experimental: The α7 helix is sufficient to protect C. elegans and inhibit surface adhesion. Based on this structural characterization, fragments of EntV were examined to identify those structural moieties that retained antifungal activity. Synthetic peptides were generated of each of the four alpha helices (plus two flanking amino acids) from the active C-terminus of EntV—α4, α5, α6 and α7 (FIG. 1A) as well as an α4-α6 construct. The peptides were tested for their ability to protect C. elegans against C. albicans infection as established in previous work (Cruz et al., 2013; Graham et al., 2017).
Killing of C. elegans by C. albicans. The methodology used for the C. elegans infection assays was performed, with a few modifications, as described ((Breger et al., 2007; Cruz et al., 2013; Graham et al., 2017; Peleg et al., 2008)). Briefly, C. elegans glp-4(bn2); sek-1(km-4) (Breger et al., 2007) nematodes were propagated and maintained on E. coli strain OP50(Brenner, 1974) that was seeded onto nematode growth medium (NGM) agar using standard techniques (Hope, 1999). To synchronize the animals, L1 stage worms on non-starved plates were washed off, filtered through a 10 μm filter (pluriSelect, pluriStrainer 10 μm), harvested by centrifugation, transferred to OP50 seeded plates, and grown to the L4 stage. To prepare the infection plates, C. albicans strain […] (Gillum et al., 1984) was grown in YPD broth for 24 h at 37° C. with agitation. 500 μl of the culture was plated onto BHI solid medium containing gentamycin (10 μg/ml) and grown for 24 h at 37° C. The synchronized, L4 C. elegans were washed off the OP50 plates in 2 ml sterile M9 buffer and washed once, centrifuging at 750×g for 30 seconds to collect animals. Animals were infected by placing them on the SC5314 lawn for 4 h at 25° C. Following this exposure, they were washed off the plate and washed four times with 2 ml of sterile M9. The nematodes were then pipetted (˜30 per well with 2 wells per condition for a total of ˜60 worms assayed) into six-well plates with 2 ml of liquid medium (20% BHI broth and 80% M9) containing the indicated concentrations of test compounds. Plates were incubated at 25° C., and worm death was scored daily. Kaplan-Meier survival curves were generated and analyzed as described in the quantification and statistical analysis section.

human cells = conditions: cited from earlier work
mouse cells = conditions: cited from earlier work
C. albicans [3] = assay: Growth of C. albicans in shaking cultures; type: cell-based
Experimental: These shorter peptides are no longer bacteriocins, having separated the antifungal and antibacterial activities. Furthermore, despite its robust protection against infection, EntV is not toxic to C. albicans. Growth of C. albicans was unaffected when EntV was added to shaking cultures in concentrations as high as 30 μM

C. albicans [4] = assay: Killing of C. elegans by C. albicans (survival of infected nematodes); type: in vivo; conditions: original strain and fluconazole-resistant descendent; 1 nM
[5] = 10 nM and 1 nM in drinking water
[6] = 100 nM in drinking water for 5 days following inoculation
[7] = 100 nM starting at day three, sacrificed on day five

Molecule	Epithelial invasion (C. albicans [1]; [5])	Fungal burden on the tongue (C. albicans [1]; [5])	Fungal burden (C. albicans [1]; 50 nM in drinking water)	Hyphal invasion (C. albicans [1]; 50 nM in drinking water)	Hyphal invasion relative to fluconazole (C. albicans [1]; 100 nM and 500 nM vs. 4 μg/mL fluconazole)	Fungal burden in the tongue (C. albicans DNA by qPCR) (C. albicans [1]; [6])	Hyphal (epithelial) invasion of the tongue (C. albicans [1]; 100 nM in drinking water for 5 days following inoculation, listed as 12-mer)	Fungal burden, treatment of established infection (C. albicans [1]; [7])	Hyphal invasion, treatment of established infection (C. albicans [1]; [7])	Fungal burden relative to fluconazole (C. albicans [1]; 100 nM vs. 4 μg/mL fluconazole, day 5)	Protection of C. elegans from C. albicans infection (survival) (C. albicans [2]; 1 nM peptide)	Median survival (C. albicans [2])	Toxicity to human cells (human cells)	Toxicity to mouse cells (mouse cells)	Highest concentration at which growth of C. albicans was unaffected (C. albicans [3]) [µM]	Protection of C. elegans infected with paired C. albicans clinical isolates (C. albicans [4])
VAGQLALWAVQC [12aa]	the reduction in invasion remains dramatic	only a slight reduction in fungal burden on the tongue	loss of efficacy in terms of fungal burden	still a significant lowering of hyphal invasion	slightly less prevalent	equally effective	at least as effective as the full length EntV; also recorded: most reduced	significantly less fungal burden compared to both groups of untreated animals	The same patterns were observed	even more effective at reducing fungal burden than 4 μg/mL fluconazole	as effective in protecting against C. albicans infection in the worm model and inhibiting surface adhesion as full-length EntV	11 days and 10 days and 12 days and 10.5 days and 9.5 days	–	–	–	–
B1	–	–	–	–	–	significantly reduced the fungal burden	–	–	–	–	–	11 days and 10.5 days and 13 days and 12 days and 10 days and 9.5 days and 9 days	no toxicity	no toxicity	≥ 30	protected
